Results as given in patent publication US11572590B2, “Methods for evaluating tumor cell spheroids using 3D microfluidic cell culture device” (Dana-Farber Cancer Institute, Inc., priority 2017, dated 2023).
Where two headings read alike, the source gives them in different places.

Columns and labels:
Experiment in all cases: SelectScreen Kinase Profiling, single point inhibition and IC50 for off-target kinases
Format in all cases: biochemical
[1] = molecular target: T1, off-target kinases (Homo sapiens, UniProt Q9BXA7); details: STK22D (TSSK1), ATP Km app, ZLYTE
T1 sequence (Q9BXA7 1-367): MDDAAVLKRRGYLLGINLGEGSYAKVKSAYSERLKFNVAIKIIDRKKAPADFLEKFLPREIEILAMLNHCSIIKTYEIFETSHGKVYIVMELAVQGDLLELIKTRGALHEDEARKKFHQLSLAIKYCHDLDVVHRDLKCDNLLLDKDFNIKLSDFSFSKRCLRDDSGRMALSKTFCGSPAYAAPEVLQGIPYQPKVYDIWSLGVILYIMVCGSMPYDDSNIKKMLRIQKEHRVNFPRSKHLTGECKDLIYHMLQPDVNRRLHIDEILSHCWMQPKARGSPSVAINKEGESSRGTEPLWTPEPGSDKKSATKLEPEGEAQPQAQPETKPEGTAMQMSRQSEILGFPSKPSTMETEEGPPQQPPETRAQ

[2] = molecular target: off-target kinases (Homo sapiens, UniProt Q96RG2); details: PASK, ZLYTE, ATP Km app
Sequence of off-target kinases (Homo sapiens, UniProt Q96RG2) (Q96RG2 whole entry): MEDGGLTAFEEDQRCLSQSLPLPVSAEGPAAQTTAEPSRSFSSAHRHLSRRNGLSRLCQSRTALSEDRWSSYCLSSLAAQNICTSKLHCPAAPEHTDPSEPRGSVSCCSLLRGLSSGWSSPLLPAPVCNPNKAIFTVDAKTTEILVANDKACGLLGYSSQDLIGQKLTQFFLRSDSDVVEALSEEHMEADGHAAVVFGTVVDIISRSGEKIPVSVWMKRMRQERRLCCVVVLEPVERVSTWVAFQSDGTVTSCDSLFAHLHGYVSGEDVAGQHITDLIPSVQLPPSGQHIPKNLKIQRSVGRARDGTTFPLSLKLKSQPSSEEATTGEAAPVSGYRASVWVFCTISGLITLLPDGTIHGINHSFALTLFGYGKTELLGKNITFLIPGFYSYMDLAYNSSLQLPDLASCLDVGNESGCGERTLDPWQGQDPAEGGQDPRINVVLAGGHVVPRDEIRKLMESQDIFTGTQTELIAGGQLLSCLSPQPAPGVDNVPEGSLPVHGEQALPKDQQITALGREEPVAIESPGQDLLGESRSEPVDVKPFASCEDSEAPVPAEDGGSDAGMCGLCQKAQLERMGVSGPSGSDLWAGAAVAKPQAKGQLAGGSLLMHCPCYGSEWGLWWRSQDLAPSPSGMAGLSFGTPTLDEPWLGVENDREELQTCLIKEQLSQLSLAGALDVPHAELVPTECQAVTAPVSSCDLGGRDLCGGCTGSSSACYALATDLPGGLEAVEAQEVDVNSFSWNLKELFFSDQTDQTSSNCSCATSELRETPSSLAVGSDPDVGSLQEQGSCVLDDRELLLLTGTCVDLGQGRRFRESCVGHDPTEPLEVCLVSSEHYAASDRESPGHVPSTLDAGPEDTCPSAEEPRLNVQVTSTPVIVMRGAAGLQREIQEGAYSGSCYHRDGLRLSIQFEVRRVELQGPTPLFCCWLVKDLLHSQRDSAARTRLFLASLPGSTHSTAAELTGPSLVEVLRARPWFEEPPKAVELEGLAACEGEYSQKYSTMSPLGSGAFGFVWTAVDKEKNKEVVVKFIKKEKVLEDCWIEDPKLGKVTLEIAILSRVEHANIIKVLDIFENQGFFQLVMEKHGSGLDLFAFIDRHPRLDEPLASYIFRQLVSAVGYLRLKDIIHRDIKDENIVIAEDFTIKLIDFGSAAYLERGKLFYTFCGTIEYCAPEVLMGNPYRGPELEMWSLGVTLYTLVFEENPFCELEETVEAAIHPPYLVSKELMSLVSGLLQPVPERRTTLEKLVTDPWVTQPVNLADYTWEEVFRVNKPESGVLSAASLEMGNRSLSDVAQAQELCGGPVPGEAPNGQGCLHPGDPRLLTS

[3] = molecular target: off-target kinases (Homo sapiens, UniProt Q14680); details: MELK, ZLYTE, ATP Km app
Sequence of off-target kinases (Homo sapiens, UniProt Q14680) (Q14680 whole entry): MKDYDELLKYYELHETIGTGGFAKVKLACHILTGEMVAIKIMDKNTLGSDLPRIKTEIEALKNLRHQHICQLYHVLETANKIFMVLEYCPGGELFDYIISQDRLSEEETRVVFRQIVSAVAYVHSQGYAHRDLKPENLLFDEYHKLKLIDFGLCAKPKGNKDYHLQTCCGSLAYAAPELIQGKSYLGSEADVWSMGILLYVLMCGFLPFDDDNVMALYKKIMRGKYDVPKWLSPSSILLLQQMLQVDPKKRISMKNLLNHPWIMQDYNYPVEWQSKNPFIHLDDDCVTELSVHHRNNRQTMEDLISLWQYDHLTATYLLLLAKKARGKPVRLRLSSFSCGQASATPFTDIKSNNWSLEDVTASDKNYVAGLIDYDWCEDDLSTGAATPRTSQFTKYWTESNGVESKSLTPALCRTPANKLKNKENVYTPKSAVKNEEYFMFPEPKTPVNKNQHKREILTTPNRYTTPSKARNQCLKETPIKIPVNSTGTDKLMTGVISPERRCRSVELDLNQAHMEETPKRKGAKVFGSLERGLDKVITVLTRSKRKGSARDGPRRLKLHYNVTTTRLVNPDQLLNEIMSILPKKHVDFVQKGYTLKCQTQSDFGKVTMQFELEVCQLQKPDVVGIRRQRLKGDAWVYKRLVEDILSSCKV

[4] = molecular target: T2, off-target kinases (Homo sapiens, UniProt Q05513); details: PRKCZ (PKC zeta); Cmpd1 1000 μM; ATP Km app; ZLYTE
T2 sequence (Q05513 1-592): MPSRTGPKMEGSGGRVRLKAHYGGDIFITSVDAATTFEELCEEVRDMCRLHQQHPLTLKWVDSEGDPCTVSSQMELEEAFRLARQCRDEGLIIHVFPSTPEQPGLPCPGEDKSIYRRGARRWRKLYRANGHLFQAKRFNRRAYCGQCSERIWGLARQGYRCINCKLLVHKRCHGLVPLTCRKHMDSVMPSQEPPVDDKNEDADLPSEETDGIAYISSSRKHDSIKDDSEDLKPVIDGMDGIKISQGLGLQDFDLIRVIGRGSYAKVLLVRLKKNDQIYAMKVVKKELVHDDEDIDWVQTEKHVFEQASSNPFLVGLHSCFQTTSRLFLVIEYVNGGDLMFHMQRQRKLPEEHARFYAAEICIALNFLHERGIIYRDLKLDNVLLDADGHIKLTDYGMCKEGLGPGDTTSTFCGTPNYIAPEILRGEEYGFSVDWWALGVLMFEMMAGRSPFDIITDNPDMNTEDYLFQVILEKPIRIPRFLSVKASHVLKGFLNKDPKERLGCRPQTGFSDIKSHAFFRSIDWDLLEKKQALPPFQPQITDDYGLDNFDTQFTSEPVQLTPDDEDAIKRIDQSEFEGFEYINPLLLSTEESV

[5] = molecular target: off-target kinases (Homo sapiens, UniProt P10721); details: KIT, ZLYTE, ATP Km app
Sequence of off-target kinases (Homo sapiens, UniProt P10721) (P10721 26-976): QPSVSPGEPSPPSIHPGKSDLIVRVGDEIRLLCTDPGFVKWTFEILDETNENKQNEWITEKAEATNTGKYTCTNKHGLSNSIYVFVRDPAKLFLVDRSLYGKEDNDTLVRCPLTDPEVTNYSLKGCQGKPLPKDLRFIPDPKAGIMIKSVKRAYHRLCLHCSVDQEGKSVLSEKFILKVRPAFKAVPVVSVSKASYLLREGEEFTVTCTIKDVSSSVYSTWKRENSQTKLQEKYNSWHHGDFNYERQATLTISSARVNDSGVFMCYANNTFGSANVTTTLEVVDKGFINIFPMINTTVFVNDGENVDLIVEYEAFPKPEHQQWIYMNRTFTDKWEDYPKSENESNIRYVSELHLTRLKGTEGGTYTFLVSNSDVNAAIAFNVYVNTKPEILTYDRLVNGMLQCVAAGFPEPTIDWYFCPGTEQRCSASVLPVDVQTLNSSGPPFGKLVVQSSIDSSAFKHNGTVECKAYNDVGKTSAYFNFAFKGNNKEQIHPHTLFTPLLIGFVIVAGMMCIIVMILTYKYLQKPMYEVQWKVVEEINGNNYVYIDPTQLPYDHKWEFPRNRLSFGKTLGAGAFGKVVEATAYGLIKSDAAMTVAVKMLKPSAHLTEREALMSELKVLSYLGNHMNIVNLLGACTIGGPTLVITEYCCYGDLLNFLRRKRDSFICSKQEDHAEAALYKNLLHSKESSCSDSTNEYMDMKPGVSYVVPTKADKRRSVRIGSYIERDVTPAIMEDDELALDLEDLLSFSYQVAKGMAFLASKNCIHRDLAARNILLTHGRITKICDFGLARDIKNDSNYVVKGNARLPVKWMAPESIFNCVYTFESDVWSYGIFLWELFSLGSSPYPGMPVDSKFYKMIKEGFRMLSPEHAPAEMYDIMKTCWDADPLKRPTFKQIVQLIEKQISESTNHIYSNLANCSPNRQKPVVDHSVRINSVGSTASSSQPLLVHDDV

[6] = molecular target: off-target kinases (Homo sapiens, UniProt P50613); details: CDK7/cyclin H/MNAT1, Adapta, ATP Km app
Sequence of off-target kinases (Homo sapiens, UniProt P50613) (P50613 whole entry): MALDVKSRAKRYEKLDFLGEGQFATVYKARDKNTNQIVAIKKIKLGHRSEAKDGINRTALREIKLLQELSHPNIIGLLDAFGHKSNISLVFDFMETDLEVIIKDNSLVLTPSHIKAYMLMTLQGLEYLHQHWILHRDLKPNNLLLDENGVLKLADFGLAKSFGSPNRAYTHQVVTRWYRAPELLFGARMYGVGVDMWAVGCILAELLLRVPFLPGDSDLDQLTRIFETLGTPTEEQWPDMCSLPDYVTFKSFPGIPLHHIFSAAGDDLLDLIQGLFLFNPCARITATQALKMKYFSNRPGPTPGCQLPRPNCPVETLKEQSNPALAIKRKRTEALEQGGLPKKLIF

[7] = molecular target: off-target kinases (Homo sapiens, UniProt Q15208); details: STK38 (NDR), LanthaScreen Binding
Sequence of off-target kinases (Homo sapiens, UniProt Q15208) (Q15208 whole entry): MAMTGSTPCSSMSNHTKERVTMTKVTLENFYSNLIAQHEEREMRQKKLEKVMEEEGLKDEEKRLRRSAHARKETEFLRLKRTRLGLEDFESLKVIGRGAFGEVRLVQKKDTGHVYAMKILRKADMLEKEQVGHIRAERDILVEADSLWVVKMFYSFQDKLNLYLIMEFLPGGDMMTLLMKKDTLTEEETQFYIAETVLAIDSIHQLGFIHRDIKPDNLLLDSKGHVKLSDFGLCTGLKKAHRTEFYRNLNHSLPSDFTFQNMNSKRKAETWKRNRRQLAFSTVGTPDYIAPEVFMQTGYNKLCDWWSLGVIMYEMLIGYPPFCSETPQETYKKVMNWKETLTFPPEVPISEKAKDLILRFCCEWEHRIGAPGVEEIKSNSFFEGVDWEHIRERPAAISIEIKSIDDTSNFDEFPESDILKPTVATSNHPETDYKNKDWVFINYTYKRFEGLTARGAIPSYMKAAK

How did the inhibition ([1]; read-out: % Inhibition 1) turn out when `N#Cc1cc(-c2ncnc(Nc3ccc(N4CCN(C5COC5)CC4)cc3)n2)ccc1OC1CCOCC1` [Compound 1, 5-(4-((4-(4-(oxetan-3-yl)piperazin-1-yl)phenyl)amino)-1,3,5-triazin-2-yl)-2-((tetrahydro-2H-pyran-4-yl)oxy)benzonitrile] was run?
Its inhibition is 99%.

What about the inhibition ([1]; read-out: % Inhibition 2) of the same compound?
The inhibition was 95%.

And the inhibition ([1]; read-out: % Inhibition Avg)?
Its inhibition is 97%.

And the inhibition ([2]; read-out: % Inhibition 1)?
The inhibition was 3%.

What about the inhibition ([2]; read-out: % Inhibition 2) of the same compound?
The inhibition was 1%.

What about the inhibition ([2]; read-out: % Inhibition Avg) of the same compound?
The inhibition was 2%.

What about the inhibition ([3]; read-out: % Inhibition 1) of the same compound?
Its inhibition is 25%.

And the inhibition ([3]; read-out: % Inhibition 2)?
Its inhibition is 22%.

What about the inhibition ([3]; read-out: % Inhibition Avg) of the same compound?
Its inhibition is 23%.

And the “% Inhibition 1” value [4]?
Its value is −18%.

What about the “% Inhibition 2” value [4] of the same compound?
Its value is −16%.

What about the “% Inhibition Avg” value [4] of the same compound?
Its value is −17%.

What about the inhibition ([5]; read-out: % Inhibition 1) of the same compound?
The inhibition was 1%.

What about the inhibition ([5]; read-out: % Inhibition 2) of the same compound?
The inhibition was 5%.

And the inhibition ([5]; read-out: % Inhibition Avg)?
The inhibition was 3%.

What about the inhibition ([6]; read-out: % Inhibition 1) of the same compound?
Its inhibition is 17%.

And the inhibition ([6]; read-out: % Inhibition 2)?
Its inhibition is 14%.

What about the inhibition ([6]; read-out: % Inhibition Avg) of the same compound?
Its inhibition is 15%.

And the inhibition ([7]; read-out: % Inhibition 1)?
Its inhibition is 51%.

What about the inhibition ([7]; read-out: % Inhibition 2) of the same compound?
Its inhibition is 49%.

What about the inhibition ([7]; read-out: % Inhibition Avg) of the same compound?
Its inhibition is 50%.
